The text below walks through data of patent US20220280561A1, “COPPER-ATSM FOR TREATING NEURODEGENERATIVE DISORDERS ASSOCITED WITH MITOCHONDRIAL DYSFUNCTION” (RESEARCH INSTITUTE AT NATIONWIDE CHILDREN'S HOSPITAL, priority 2019, published 2022).

What all share (type): cell-based, human
One experiment relates to SCN2A induced neurons. In words: chemical differentiation of SCN2A patient fibroblasts to iNeurons, neuron survival. To be noted: 0.01% of CuATSM on days five and seven of differentiation. The procedure: FIG. 8A) Schematic protocol of iNeuron reprogramming from patient fibroblasts. Fibroblast cells were seeded on 12-well plates and differentiated for 7 days into iNeurons. iNeurons were fixed and imaged/immunostained for Tuj1 neuronal marker. FIG. 8B) Representative images of fibroblasts (before) and iNeurons after reprogramming. FIG. 8C) Representative bright field images of iNeurons following seven days of differentiation (scale bar=50 μm). On day five of differentiation, cells were treated with 0.01% of CuATSM as well as on day seven. FIG. 8D) Quantification of neuron survival percentage after seven days of differentiation. Tuj1 positive cells from three to five different images per line were counted and data was normalized to the average count of healthy control. […] 24 hours later mouse neurons were seeded on top of astrocyte monolayer and viability was determined following 3 days in culture. […]
Neuronal differentiation was performed as previously described (Hu et. al. 2016). […] At 5-7 days neurons were imaged and the number of cells expressing neuronal markers such as Tuj1 and Map2 and contained neurite outgrowths greater than two times the soma were counted.
The effect of CuATSM treatment on SCN2A iAstrocytes mediated neuron toxicity was investigated. […] Neuron survival was quantified following seven days of differentiation by counting cells with neurites two times the soma length. […]

For a further experiment, the system named is MT1 protein. In words: MT1 immunostaining of SCN2A iAstrocytes. The note with it: SCN2A iAstrocytes treated on days 2-5 of differentiation, vs DMSO. The method, then:
Single Cell RNA sequencing analysis of dissociated organoids was performed following treatment with CuATSM. Brain organoids from SCN2A (SCN2A-1) CuATSM responder were treated with DMSO control or CuATSM. […] To confirm these findings, SCN2A iAstrocytes were treated with CuATSM on days 2-5 during their differentiation in 10 cm plates. On day five, cells were seeded onto 24-well plates with cover slips. On day seven, cells were fixed with 4% paraformaldehyde (PFA) and immunostained for MT1 protein.

Experiment [1] concerns IRF2BPL (NEDAMSS) astrocytes. Put plainly: Seahorse basal and ATP-linked respiration, IRF2BPL (NEDAMSS) astrocytes. The note with it: all IRF2BPL (NEDAMSS) astrocytes, treated vs not treated. The procedure: FIG. 21A) Schematic image of the seahorse assay. The base oxygen consumption rate was measured (FIG. 21B). ATP linked respiration was measured following mitochondrial shutdown using oligomycin and was calculated by subtracting the oligo OCR from basal OCR (FIG. 21C). Both basal and/or ATP-linked respiration was elevated in three of the four patient lines tested. iAstrocytes pretreated with CuATSM (dashed bars on the graph) had significant reduction in basal and/or ATP-linked respiration (FIG. 21C). Data represents a minimum of 2 independent experiments.
Next, the effect of CuATSM treatment on basal and/or ATP-linked respiration in NEDAMSS astrocytes was investigated. […] The base oxygen consumption rate (FIG. 21B) was measured at three time points for healthy and NEDAMSS patients astrocytes either treated or not treated with CuATSM. ATP linked respiration was measured by subtracting the […] (FIG. 21C). […] This beneficial response may be due to a mutation specific alteration in one of the other pathways described herein that cuATSM affects that results in another abnormal pathway targeted by CuATSM.

`CN=C([S-])N/N=C(C)/C(C)=N/NC([S-])=NC.[Cu+2]` [CuATSM, diacetyl-bis(4-methylthiosemicarbazonato) copperII]: in the experiment on SCN2A induced neurons, the “neuron survival after seven days of differentiation” value is listed as “increase neuronal survival”. The “MT1 expression (immunostain)” value in the experiment with MT1 protein is listed as “increase in MT1 expression”. In experiment [1], the ATP-linked respiration result was “reduce” and the basal respiration result was “reduce”.
